Results from patent publication EP4772520A1, “NOVEL PRODRUG-TYPE ANTICANCER AGENT TARGETING CANCER-SPECIFIC ENZYME ACTIVITY” (priority 2023, dated 2025).

Columns and labels:
[1] = tested on: luciferase-expressing A549 cell; experiment: Therapeutic experiment in A549 peritoneal dissemination model; format: in vivo, mice
Description: The therapeutic effect was verified using a peritoneal dissemination model using SN38-βGal. Whether the tumor suppression effect was confirmed was evaluated as compared with the Vehicle group (DMSO administration) by separating the SN38-βGal from the 10 mg/kg and 20 mg/kg administration groups.
n = 3 for each group, and evaluation was performed on luciferase-expressing A549 cell peritoneal dissemination model mice using BALB/cAJcl-nu/nu. The administration form was intraperitoneal administration (i.p.), and continuous administration was performed for 40 days. Tumor burden was determined by evaluating luciferin/luciferase chemiluminescence. An endpoint was a time point at which significant body weight loss (20% loss) or intraperitoneal hemorrhage was found.
A specific procedure of the therapeutic experiment is shown below. • (1) Luciferase expressing A549 cells 5 × 10^6 cells/mL (200 µL) was intraperitoneally administered to BALB/cAJcl-nu/nu (7 weeks old). • (2) After one week, the formation of peritoneal dissemination was confirmed by luciferin/luciferase chemiluminescence, and drug administration was started. 3 mg (200 µL) of luciferin was administered by intraperitoneal administration, and anesthetized with isoflurane. Thereafter, the chemiluminescent value at 20 minutes after administration was measured by an in vivo imaging device. The drug was prepared by dissolving a 100 mM of DMSO stock in PBS, and administered in a total amount of 100 µL. • (3) On the day of evaluation, the tumor burden was evaluated by luciferin/luciferase chemiluminescence. • (4) After completion of the treatment, gGlu-HMRG (10 µM, 500 µL PBS) was intraperitoneally administered, and 10 minutes later, the abdomen was opened, and the intestinal tract and the peritoneum were taken out. • (5) The seeded lesion was fluorescently imaged by an in vivo fluorescence imaging device, and comparison between the Vehicle and the administration group was performed.

[2] = tested on: mouse Lewis lung cancer-derived cell line LLC (3LL); experiment: Combination experiment with anti-PD-1 antibody, LLC subcutaneous tumor model; format: in vivo, mice; settings: anti-PD-1 antibody 100 µg i.p. twice a week, SN38-βGlcNAc 150 mg/kg i.v. three times a week
Description: The effect of combination use of an anti-PD-1 antibody and SN38-βGlcNAc used as a main cancer immunotherapy in current lung cancer treatment was examined. Subcutaneous tumor model mice of a mouse Lewis lung cancer-derived cell line LLC (3LL) reported to have sensitivity to the anti-PD-1 antibody were evaluated, and the Vehicle (DMSO) group was n = 8, the anti-PD-1 antibody administration group was n = 5, the SN38-βGlcNAc administration group was n = 6, and the combination use group of the anti-PD-1 antibody and the SN38-βGlcNAc was n = 5. As an antibody, anti-mouse PD-1 antibody Clone RMP1-14 (Leinco Technologies, Inc.) was used. […]
A specific procedure of the therapeutic experiment is shown below. • (1) Hair on the dorsal side from the upper part of the right foot of C57BL/6JJcl (7 weeks old, female) was shaved with a hair clipper, and then LLC cells 2.0 ×10^6 cells (50 µL) were subcutaneously injected. • (2) The drug administration was started to the individual whose tumor volume reached about 50 to 170 mm^3 after 6 days. […] The anti-PD-1 antibody (Clone RMP1-14) was administered by intraperitoneal administration of 100 µg dissolved in 100 µL of PBS. • (3) The body weight was measured on the day of evaluation, and the tumor volume was evaluated with a vernier caliper. • (4) The time point when the tumor volume reached 2000 to 3000 mm^3 was taken as the endpoint.

[3] = tested on: primary lung squamous cell carcinoma PDX tumor (DLUN013/F_PDX_000162); experiment: Tumor proliferation suppression test in PDX model mice; format: in vivo; settings: 200 mg/kg i.v., 6 times over 2 weeks
Description: With respect to SN38-βGlcNAc showing high sensitivity by the organoid test, an in vivo tumor proliferation suppression test was performed using a primary lung squamous cell carcinoma PDX tumor (DLUN013/F_PDX_000162) established at Fukushima Medical University Medical and Industrial TR Center from the same patient. 200 mg/kg of SN38-βGlcNAc was intravenously administered to PDX subcutaneous tumor model mice a total of 6 times over 2 weeks as shown in the administration schedule (a of Fig. 30), and the tumor proliferation suppression effect was evaluated. The Vehicle (DMSO administration) group and the SN38-βGlcNAc administration group were n = 6, respectively.
A specific procedure of the therapeutic experiment is shown below. • (1) The tube containing the frozen tumor tissue was thawed in a thermostatic water bath at 37°C. […] The SN38-βGlcNAc was prepared by dissolving a 400 mM of DMSO stock in PBS, and was intravenously administered from the tail vein 3 times a week for 2 weeks at a dose of 200 mg/kg with a total amount of 100 µL. • (5) The tumor volume and body weight were measured on the day of evaluation. • (6) The tumor was removed, and then subjected to fluorescence imaging using HMRef-βGlcNAc (50 µM, PBS solution) in the presence and absence of PUGNAc (500 µM), which is an inhibitor of β-hexosaminidase.

Row | Compound | tumor suppression effect (luciferin/luciferase chemiluminescence) ([1]; 10 mg/kg and 20 mg/kg i.p., continuous administration for 40 days, vs Vehicle) | body weight ([1]; 10 mg/kg i.p. group) | body weight ([1]; 20 mg/kg i.p. group) | body weight [2] | tumor proliferation suppression (tumor volume) ([2]; vs Vehicle) | body weight change [3] | tumor proliferation suppression effect (tumor volume) ([3]; n = 6, vs Vehicle)
1 | CCc1c2c(nc3ccc(O[C@@H]4O[C@H](CO)[C@H](O)[C@H](O)[C@H]4O)cc13)-c1cc3c(c(=O)n1C2)COC(=O)[C@]3(O)CC [SN38-βGal] | the therapeutic efficacy of SN38-βGal in peritoneal dissemination model mice was confirmed | there was almost no difference from the Vehicle | a slight body weight loss was found in the 20 mg/kg group by Day 10 of administration |  |  |  | 
2 | CCc1c2c(nc3ccc(O[C@@H]4O[C@H](CO)[C@@H](O)[C@H](O)[C@H]4NC(C)=O)cc13)-c1cc3c(c(=O)n1C2)COC(=O)[C@]3(O)CC [SN38-βGlcNAc] |  |  |  | no body weight loss was found in any group | showed tumor proliferation suppression | No body weight change was observed | the tumor growth was significantly suppressed
